Where two headings read alike, the source gives them in different places. Starred links: 1 amine or outer side, 2 acyl side, 3 side chain; linkers in the order of their positions; H or OH if unused. Positions of bridges follow the written chain, without caps; N, C: chain ends. Non-standard residues stand in square brackets, D forms with d. Residues, ends and D or L forms follow the SMILES beside them. Chains are numbered I, II in the order given. *: point of attachment. d(isoGln) = NC(=O)[C@@H](CCC(=O)[*:2])N[*:1]; isoGln = NC(=O)[C@H](CCC(=O)[*:2])N[*:1]; d(εLys) = N[C@H](CCCCN[*:1])C(=O)[*:2]; εLys = N[C@@H](CCCCN[*:1])C(=O)[*:2]; Aad = N[C@@H](CCCC(=O)O)C(=O)O; Cit = NC(=O)NCCC[C@H](N)C(=O)O; Orn = NCCC[C@H](N)C(=O)O; Dab = NCC[C@H](N)C(=O)O; PhAc = O=C(Cc1ccccc1)*
Molecular target: T1, human V1aR (Homo sapiens, UniProt P37288)
T1 construct: expressed in transfected cells
T1 sequence (P37288 whole entry): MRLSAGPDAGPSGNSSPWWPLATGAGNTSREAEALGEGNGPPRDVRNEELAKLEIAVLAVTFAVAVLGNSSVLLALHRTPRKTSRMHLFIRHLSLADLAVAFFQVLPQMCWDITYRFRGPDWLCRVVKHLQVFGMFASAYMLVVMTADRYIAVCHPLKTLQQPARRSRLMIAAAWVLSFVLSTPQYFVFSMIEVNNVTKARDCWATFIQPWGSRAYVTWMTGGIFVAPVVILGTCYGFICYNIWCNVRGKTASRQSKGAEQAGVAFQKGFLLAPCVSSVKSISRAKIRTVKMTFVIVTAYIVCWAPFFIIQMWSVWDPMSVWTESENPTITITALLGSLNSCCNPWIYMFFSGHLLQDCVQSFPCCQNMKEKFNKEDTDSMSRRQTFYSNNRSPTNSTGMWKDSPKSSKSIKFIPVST
Experiment: Agonist activity at vasopressin V1a receptors, cell-based FLIPR calcium assay
Settings: for Emax: read-out: Efficacy Avg. (%)
Protocol: Efficacy (% MPE) is also determined as the percentage of maximal possible effect. This agonist assay utilizes cells from a stable cell line (HEK-flpin) expressing the vasopressin V1a receptor. Intracellular calcium increase in response to agonist is measured through real-time fluorescence of an intracellular calcium-sensitive dye. Cells are exposed to varying concentrations of test agonist compounds whereupon release of intracellular calcium is measured to determine the agonist potency and efficacy.
The cell line stably expresses the lacZ-Zeocin™ fusion gene and is designed for use with the Flp-In™ expression vector containing the gene of interest and the Flp recombinase expression plasmid, pOG44. The cell line contains a single integrated Flp Recombination Target (FRT) site from pFRT/lacZeo or pFRT/lacZeo2. To generate the HEK-flpin cell line stably expressing the human V1aR, the cells were co-transfected with the Flp-In™ expression vector containing the gene of interest (pcDNA5/FRT-hV1aR) and the Flp recombinase expression plasmid pOG44. Flp recombinase mediates insertion of the Flp-In™ expression vector into the genome at the integrated FRT site through site-specific DNA recombination. Stable cell lines expressing the hV1aR from the Flp-In™ expression vector can be generated by selection using hygromycin B. See Life Technologies/Invitrogen manual, Growth and Maintenance of Flp-In™ Cell Lines, Version E, published Feb.
Efficacy of this compound was set to be 100%. A stock solution of 5 mM was made up in DMSO and stored at −20° C.
HEK-flpin-hV1aR, cmcqV1aR, dV1aR and pV1aR cells were maintained in DMEM containing 10% (v/v) FBS-HI, 4 mM GlutaMAX™-I, 25 μg/mL Hygromycin B at 37° C. under 5% CO2 in a humidified atmosphere. Subculture was achieved by splitting semi-confluent cultures 1:3 to 1:6.
All compounds were made up in 100% DMSO at 10 mM stock concentrations and stored at −20° C. The compounds were allowed to thaw just before the assay. […] Typical dilution procedure of 10× final assay concentration involved a 1:100 top dilution (e.g., 2 μl Stock into 198 μl dilution medium) followed by half-log serial dilutions (e.g., 25.3 μl into 54.7 μl dilution medium supplemented with 1% DMSO (v/v)). (Dilution media consisted of phenol-red free DMEM containing 10% FBS-HI, 4 mM GlutaMAX™-I). […] The final DMSO concentration in the assay was 0.1%.
Loading Buffer was prepared by dissolving 1 vial of Calcium 4 Assay reagent in 100 mL of 1× HBSS-20 mM Hepes buffer.
The cells were loaded with Loading Buffer as follows. Cell plates were removed from the incubator and 20 μl of Loading Buffer containing probenecid (2.5 mM) was added to each well. The cells were incubated for 1 hr at 37° C. under 5% CO2 in a humidified atmosphere. The calcium image was obtained as follows.
The cell plates were transferred to FLIPR Tetra, along with a 384 well V-bottom plate pre-loaded with half-log concentrations of test compounds at 10× final test concentrations. The remaining steps of the assay were carried forward by FLIPR Tetra. A baseline reading was taken at 1-second (s) intervals for 5s followed by the addition of 5 μl of 10× compounds (test, reference, or Blank). The agonist-induced fluorescence signal was then measured for 180 s with initial 120 readings at 1-second intervals followed by 20 readings at 3-second intervals. Overall, each well in the FLIPR assay was composed of the following components in a total volume of 50 μl: 20 μl cells; 20 μl Calcium 4 Loading Buffer; […] 10× test or reference compound.

SMILES	EC50 [nM]	Emax [%]	EC50 (HEK-flpin cells stably expressing hV1aR, intracellular calcium fluorescence, averaged, read-out: EC50 (Avg)) [nM]
CC[C@H](C)[C@@H]1NC(=O)[C@H](Cc2ccccc2)NC(=O)[C@@H](O)CSSC[C@@H](C(=O)N2CCC[C@H]2C(=O)N[C@@H](CCNC(=O)[C@@H](N)CCCCNC(=O)CC[C@H](NC(=O)[C@H](CCCNC(=N)N)NC(=O)[C@@H]2CCCN2C(=O)[C@H](CCCNC(N)=O)NC(=O)[C@H](CC(N)=O)NC(=O)[C@H](CCC(N)=O)NC(=O)[C@H](Cc2ccccc2)NC(=O)[C@@H](Cc2ccc(OC)cc2)NC(=O)Cc2ccccc2)C(N)=O)C(=O)NCC(N)=O)NC(=O)[C@H](CC(N)=O)NC(=O)[C@H](CCCC(N)=O)NC1=O [Compound 48]	1.4	67	–
CC[C@H](C)[C@@H]1NC(=O)[C@H](Cc2ccccc2)NC(=O)[C@@H](N)CSSC[C@@H](C(=O)N2CCC[C@H]2C(=O)N[C@@H](CCNC(=O)[C@@H](N)CCCCNC(=O)CC[C@H](NC(=O)[C@H](CCCNC(=N)N)NC(=O)[C@@H]2CCCN2C(=O)[C@H](C)NC(=O)[C@H](CC(N)=O)NC(=O)[C@H](CCC(N)=O)NC(=O)[C@H](Cc2ccccc2)NC(=O)[C@@H](Cc2ccc(OC)cc2)NC(=O)Cc2ccccc2)C(N)=O)C(=O)NCC(N)=O)NC(=O)[C@H](CC(N)=O)NC(=O)[C@H](CCC(N)=O)NC1=O [Compound 18] (I: H-CFIQNCP[Dab]G-NH2 / II: PhAc-[dY](Me)FQNAPR[isoGln][εLys]; disulfide I:1-I:6; amide I:8-II:C)	3.9	49	–
CC[C@H](C)[C@@H]1NC(=O)[C@H](Cc2ccccc2)NC(=O)[C@@H](N)CSSC[C@@H](C(=O)N2CCC[C@H]2C(=O)N[C@@H](CCCNC(=O)[C@@H](N)CCCCNC(=O)CC[C@H](NC(=O)[C@H](CCCNC(=N)N)NC(=O)[C@@H]2CCCN2C(=O)[C@H](CCCNC(=N)N)NC(=O)[C@H](CC(N)=O)NC(=O)[C@@H](NC(=O)[C@H](Cc2ccccc2)NC(=O)[C@@H](Cc2ccc(OC)cc2)NC(=O)Cc2ccccc2)[C@@H](C)O)C(N)=O)C(=O)NCC(N)=O)NC(=O)[C@H](CC(N)=O)NC(=O)[C@H](CCC(N)=O)NC1=O [Compound 22] (I: H-CFIQNCP[Orn]G-NH2 / II: PhAc-[dY](Me)FTNRPR[isoGln][εLys]; disulfide I:1-I:6; amide I:8-II:C)	0.95	29	–
CC[C@H](C)[C@@H]1NC(=O)[C@H](Cc2ccccc2)NC(=O)[C@@H](N)CSSC[C@@H](C(=O)N2CCC[C@H]2C(=O)N[C@@H](CCNC(=O)[C@@H](N)CCCCNC(=O)CC[C@@H](NC(=O)[C@H](CCCNC(=N)N)NC(=O)[C@@H]2CCCN2C(=O)[C@H](C)NC(=O)[C@H](CC(N)=O)NC(=O)[C@H](CCC(N)=O)NC(=O)[C@H](Cc2ccccc2)NC(=O)[C@@H](Cc2ccc(OC)cc2)NC(=O)Cc2ccccc2)C(N)=O)C(=O)NCC(N)=O)NC(=O)[C@H](CC(N)=O)NC(=O)[C@H](CCCC(N)=O)NC1=O [Compound 53] (I: H-CFI[Aad](NH2)NCP[Dab]G-NH2 / II: PhAc-[dY](Me)FQNAPR[d(isoGln)][εLys]; disulfide I:1-I:6; amide I:8-II:C)	1.7	43	–
CC[C@H](C)[C@@H]1NC(=O)[C@H](Cc2ccccc2)NC(=O)[C@@H](N)CSSC[C@@H](C(=O)N2CCC[C@H]2C(=O)N[C@@H](CCCNC(=O)[C@@H](N)CCCCNC(=O)CC[C@H](NC(=O)[C@H](CCCNC(=N)N)NC(=O)[C@@H]2CCCN2C(=O)[C@H](C)NC(=O)[C@H](CC(N)=O)NC(=O)[C@H](CCC(N)=O)NC(=O)[C@H](Cc2ccccc2)NC(=O)[C@@H](Cc2ccc(OC)cc2)NC(=O)Cc2ccccc2)C(N)=O)C(=O)NCC(N)=O)NC(=O)[C@H](CC(N)=O)NC(=O)[C@H](CCC(N)=O)NC1=O [Compound 28] (I: H-CFIQNCP[Orn]G-NH2 / II: PhAc-[dY](Me)FQNAPR[isoGln][εLys]; disulfide I:1-I:6; amide I:8-II:C)	1.2	44	–
CCCCCCC(=O)N[C@H](Cc1ccc(OC)cc1)C(=O)N[C@@H](Cc1ccccc1)C(=O)N[C@@H](CCC(N)=O)C(=O)N[C@@H](CC(N)=O)C(=O)N[C@@H](C)C(=O)N1CCC[C@H]1C(=O)N[C@@H](CCCNC(=N)N)C(=O)N[C@@H](CCC(=O)NCCCCCCNCCC[C@H](NC(=O)[C@@H]1CCCN1C(=O)[C@@H]1CSSC[C@H](N)C(=O)N[C@@H](Cc2ccccc2)C(=O)N[C@@H]([C@@H](C)CC)C(=O)N[C@@H](CCC(N)=O)C(=O)N[C@@H](CC(N)=O)C(=O)N1)C(=O)NCC(N)=O)C(N)=O [Compound 17]	–	62	2.9
CC[C@H](C)[C@@H]1NC(=O)[C@H](Cc2ccccc2)NC(=O)[C@@H](N)CSSC[C@@H](C(=O)N2CCC[C@H]2C(=O)N[C@@H](CCNC(=O)[C@@H](N)CCCCNC(=O)CC[C@H](NC(=O)[C@H](CCCNC(=N)N)NC(=O)[C@@H]2CCCN2C(=O)[C@H](CCCNC(N)=O)NC(=O)[C@H](CC(N)=O)NC(=O)[C@H](CCC(N)=O)NC(=O)[C@H](Cc2ccccc2)NC(=O)[C@@H](Cc2ccc(OC)cc2)NC(=O)Cc2ccccc2)C(N)=O)C(=O)NCC(N)=O)NC(=O)[C@H](CC(N)=O)NC(=O)[C@H](CCCC(N)=O)NC1=O [Compound 47] (I: H-CFI[Aad](NH2)NCP[Dab]G-NH2 / II: PhAc-[dY](Me)FQN[Cit]PR[isoGln][εLys]; disulfide I:1-I:6 (inferred); amide I:8-II:C (inferred))	1.8	45	–
CC[C@H](C)[C@@H]1NC(=O)[C@H](Cc2ccccc2)NC(=O)[C@@H](N)CSSC[C@@H](C(=O)N2CCC[C@H]2C(=O)N[C@@H](CCNC(=O)[C@@H](N)CCCCNC(=O)CC[C@@H](NC(=O)[C@H](CCCNC(=N)N)NC(=O)[C@@H]2CCCN2C(=O)[C@H](CCCNC(N)=O)NC(=O)[C@H](CC(N)=O)NC(=O)[C@H](CCC(N)=O)NC(=O)[C@H](Cc2ccccc2)NC(=O)[C@@H](Cc2ccc(OC)cc2)NC(=O)Cc2ccccc2)C(N)=O)C(=O)NCC(N)=O)NC(=O)[C@H](CC(N)=O)NC(=O)[C@H](CCC(N)=O)NC1=O [Compound 57] (I: H-CFIQNCP[Dab]G-NH2 / II: PhAc-[dY](Me)FQN[Cit]PR[d(isoGln)][εLys]; disulfide I:1-I:6; amide I:8-II:C)	1.4	63	–
CC[C@H](C)[C@@H]1NC(=O)[C@H](Cc2ccccc2)NC(=O)[C@@H](N)CSSC[C@@H](C(=O)N2CCC[C@H]2C(=O)N[C@@H](CCCNCCCCCC(=O)NCCCC[C@H](NC(=O)[C@H](CCCNC(=N)N)NC(=O)[C@@H]2CCCN2C(=O)[C@H](CC(C)C)NC(=O)[C@H](CC(N)=O)NC(=O)[C@H](CCC(N)=O)NC(=O)[C@H](Cc2ccccc2)NC(=O)[C@@H](Cc2ccc(OC)cc2)NC(=O)Cc2ccccc2)C(N)=O)C(=O)NCC(N)=O)NC(=O)[C@H](CC(N)=O)NC(=O)[C@H](CCC(N)=O)NC1=O [Compound 9]	> 10000	34	–
CC[C@H](C)[C@@H]1NC(=O)[C@H](Cc2ccccc2)NC(=O)[C@@H](N)CSSC[C@@H](C(=O)N2CCC[C@H]2C(=O)N[C@@H](CCNC(=O)[C@H](N)CCCCNC(=O)[C@H](CCCCNC(C)=O)NC(=O)CC[C@H](NC(=O)[C@H](CCCNC(=N)N)NC(=O)[C@@H]2CCCN2C(=O)[C@H](C)NC(=O)[C@H](CC(N)=O)NC(=O)[C@H](CCC(N)=O)NC(=O)[C@H](Cc2ccccc2)NC(=O)[C@@H](Cc2ccc(OC)cc2)NC(=O)Cc2ccccc2)C(N)=O)C(=O)NCC(N)=O)NC(=O)[C@H](CC(N)=O)NC(=O)[C@H](CCCC(N)=O)NC1=O [Compound 58] (I: H-CFI[Aad](NH2)NCP[Dab]G-NH2 / II: PhAc-[dY](Me)FQNAPR[isoGln]K(Ac)[d(εLys)]; disulfide I:1-I:6; amide I:8-II:C)	2.6	26	–

— patent US20160122386A1, “V1A RECEPTOR AGONISTS” (FERRING B.V., priority 2014, published 2016)
